Where a name gives a salt, the structure may show the parent alone.
Columns and labels:
human B1R receptor = target: T1, human B1R receptor (Homo sapiens, UniProt P46663); experiment: Functional study on the bradykinin receptor 1 (B1R), FLIPR Ca2+ assay, hB1R cells; format: cell-based; settings: agonist Lys-Des-Arg9-bradykinin 0.5 nM, % inhibition compared with the maximum achievable inhibition; for inhibition at 10 µM: CHO-K1, test substance 10 μM, read-out: B1R Antagonism, human [10 μM] % Inhibition; for B1R Antagonism, human [10 μM] % Inhibition: test substance 10 μM, hB1R CHO K1 cells
T1 construct: host or cells: CHO K1 cells (Chinese hamster ovary), stably transfected
T1 sequence (P46663 1-353): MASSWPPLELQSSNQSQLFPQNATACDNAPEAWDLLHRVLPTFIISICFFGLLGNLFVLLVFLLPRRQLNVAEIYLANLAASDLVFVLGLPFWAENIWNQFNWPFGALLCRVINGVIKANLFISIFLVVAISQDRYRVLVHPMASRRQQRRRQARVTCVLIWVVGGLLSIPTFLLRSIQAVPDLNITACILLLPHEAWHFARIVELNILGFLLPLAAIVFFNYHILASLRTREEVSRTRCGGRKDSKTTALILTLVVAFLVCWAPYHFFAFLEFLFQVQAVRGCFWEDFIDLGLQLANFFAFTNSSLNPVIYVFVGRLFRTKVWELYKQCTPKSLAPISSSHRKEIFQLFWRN
Method in brief: (§1)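 Readout: peak Fluo-4 Ca2+ fluorescence, FLIPR. Stable CHO K1 hB1R or rB1R cells; cpd 10 μM, 10 min preincubation, then agonist (hB1R: Lys-Des-Arg9-BK 0.5 nM; rB1R: Des-Arg9-BK 100 nM). Value = % inhibition relative to maximal achievable inhibition.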

B1R receptor of the rat = target: T2, B1R receptor of the rat (Rattus norvegicus, UniProt P97583); experiment: Functional study on the bradykinin receptor 1 (B1R), FLIPR Ca2+ assay, rB1R cells; format: cell-based; settings: agonist Des-Arg9-bradykinin 100 nM, % inhibition compared with the maximum achievable inhibition; for inhibition at 10 µM: CHO-K1, test substance 10 μM, read-out: B1R Antagonism, rat [10 μM] % Inhibition; for B1R Antagonism, rat [10 μM] % Inhibition: test substance 10 μM, rB1R CHO K1 cells
T2 construct: host or cells: CHO K1 cells (Chinese hamster ovary), stably transfected
T2 sequence (P97583 1-337): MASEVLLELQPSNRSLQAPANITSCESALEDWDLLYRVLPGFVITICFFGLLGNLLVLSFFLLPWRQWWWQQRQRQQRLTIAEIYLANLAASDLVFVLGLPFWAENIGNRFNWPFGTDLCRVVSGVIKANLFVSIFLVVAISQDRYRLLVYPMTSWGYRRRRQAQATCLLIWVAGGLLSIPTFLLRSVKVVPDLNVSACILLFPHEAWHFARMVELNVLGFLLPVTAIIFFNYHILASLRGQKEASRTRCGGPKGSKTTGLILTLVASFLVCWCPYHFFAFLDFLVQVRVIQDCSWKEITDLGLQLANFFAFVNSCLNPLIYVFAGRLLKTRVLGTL
Method in brief: as §1

Row | Structure (SMILES) | inhibition at 10 µM (human B1R receptor) | inhibition at 10 µM (B1R receptor of the rat) | B1R Antagonism, human [10 μM] % Inhibition (human B1R receptor) | B1R Antagonism, rat [10 μM] % Inhibition (B1R receptor of the rat)
1 | COc1cc(C)c(S(=O)(=O)N2Cc3ccccc3C[C@H]2COCC(=O)N2CCC(CCN3CCCC3)CC2)c(C)c1 [Example 187, (S)-2-((2-(4-methoxy-2,6-dimethylphenylsulfonyl)-1,2,3,4-tetrahydroisoquinolin-3-yl)methoxy)-1-(4-(2-(pyrrolidin-1-yl)ethyl)piperidin-1-yl)ethanone] | 100% | 102% | – | –
2 | COc1cc(C)c(S(=O)(=O)N2CCCCC2COCC(=O)N2CCC(COc3ccncc3)CC2)c(C)c1 (centres unmarked) [Example 188, 2-((1-(4-methoxy-2,6-dimethylphenylsulfonyl)piperidin-2-yl)methoxy)-1-(4-((pyridin-4-yloxy)methyl)piperidin-1-yl)ethanone] | 102% | 102% | – | –
3 | COc1ccc(S(=O)(=O)N2Cc3ccccc3C[C@H]2COCC(=O)N2CCN(CC3CCN(C)CC3)CC2)cc1 [Example 189, (S)-2-((2-(4-methoxyphenylsulfonyl)-1,2,3,4-tetrahydroisoquinolin-3-yl)methoxy)-1-(4-((1-methylpiperidin-4-yl)methyl)piperazin-1-yl)ethanone dihydrochloride] | 70.7% | 86.4% | – | –
4 | COc1cc(C)c(S(=O)(=O)N2CCC[C@H]2COCC(=O)N2CCC(CCN3CCCC3)CC2)c(C)c1 [Example 190, (S)-2-((1-(4-methoxy-2,6-dimethylphenylsulfonyl)pyrrolidin-2-yl)methoxy)-1-(4-(2-(pyrrolidin-1-yl)ethyl)piperidin-1-yl)ethanone hydrochloride] | 102% | 102% | – | –
5 | COc1cc(C)c(S(=O)(=O)N2CCCC2COCC(=O)N2CCN(C3CCN(C)CC3)CC2)c(C)c1 (centres unmarked) [Example 192, 2-((1-(4-methoxy-2,6-dimethylphenylsulfonyl)pyrrolidin-2-yl)methoxy)-1-(4-(1-methylpiperidin-4-yl)piperazin-1-yl)ethanone] | 106% | 100% | – | –
6 | COc1cc(C)c(S(=O)(=O)N2CCCCC2COCC(=O)N(C)CCC2CCC(N3CCCC3)CC2)c(C)c1 (centres unmarked) [Example 194, 2-((1-(4-methoxy-2,6-dimethylphenylsulfonyl)piperidin-2-yl)methoxy)-N-methyl-N-(2-(4-(pyrrolidin-1-yl)cyclohexyl)ethyl)acetamide] | 103% | 100% | – | –
7 | COc1cc(C)c(S(=O)(=O)N2CCCCC2COCC(=O)NCc2cccc(Oc3cnccn3)c2)c(C)c1 (centres unmarked) [Example 195, 2-((1-(4-methoxy-2,6-dimethylphenylsulfonyl)piperidin-2-yl)methoxy)-N-(3-(pyrazin-2-yloxy)benzyl)acetamide] | 85.1% | 98.8% | – | –
8 | COc1cc(C)c(S(=O)(=O)N2CCCCC2COCC(=O)NCc2ccc(Oc3cnccn3)cc2)c(C)c1 (centres unmarked) [Example 196, 2-((1-(4-methoxy-2,6-dimethylphenylsulfonyl)piperidin-2-yl)methoxy)-N-(4-(pyrazin-2-yloxy)benzyl)acetamide] | 100% | 98.8% | – | –
9 | COc1cc(C)c(S(=O)(=O)N2CCCCC2COCC(=O)N2CCN(Cc3nc(-c4ccccc4)[nH]c3Cl)CC2)c(C)c1 (centres unmarked) [Example 197, 1-(4-((5-chloro-2-phenyl-1H-imidazol-4-yl)methyl)piperazin-1-yl)-2-((1-(4-methoxy-2,6-dimethylphenylsulfonyl)piperidin-2-yl)methoxy)ethanone] | 104% | 100% | – | –
10 | COc1cc(C)c(S(=O)(=O)N2CCCCC2COCC(=O)N2CCN(Cc3cnn(C)c3C)CC2)c(C)c1 (centres unmarked) [Example 198, 1-(4-((1,5-dimethyl-1H-pyrazol-4-yl)methyl)piperazin-1-yl)-2-((1-(4-methoxy-2,6-dimethylphenylsulfonyl)piperidin-2-yl)methoxy)ethanone] | 105% | 99.8% | – | –
11 | COc1cc(C)c(S(=O)(=O)N2CCCCC2COCC(=O)N2CCN(Cc3cnc(N(C)C)nc3)CC2)c(C)c1 (centres unmarked) [Example 199, 1-(4-((2-(dimethylamino)pyrimidin-5-yl)methyl)piperazin-1-yl)-2-((1-(4-methoxy-2,6-dimethylphenylsulfonyl)piperidin-2-yl)methoxy)ethanone] | 104% | 101% | – | –
12 | COc1cc(C)c(S(=O)(=O)N2CCCCC2COCC(=O)N2CCC(N3CCc4cc(F)ccc4C3)CC2)c(C)c1 (centres unmarked) [Example 200, 1-(4-(6-fluoro-3,4-dihydroisoquinolin-2(1H)-yl)piperidin-1-yl)-2-((1-(4-methoxy-2,6-dimethylphenylsulfonyl)piperidin-2-yl)methoxy)ethanone] | 102% | 98.7% | – | –
13 | COc1cc(C)c(S(=O)(=O)N2CCCCC2COCC(=O)N2CCC(c3ccncc3)CC2)c(C)c1 (centres unmarked) [Example 201, 2-((1-(4-methoxy-2,6-dimethylphenylsulfonyl)piperidin-2-yl)methoxy)-1-(4-(pyridin-4-yl)piperidin-1-yl)ethanone] | 103% | 98.2% | – | –
14 | COc1cc(C)c(S(=O)(=O)N2c3ccccc3CCC2COCC(=O)N2CCN(C3CCN(C)CC3)CC2)c(C)c1 (centres unmarked) [Example 202, 2-((1-(4-methoxy-2,6-dimethylphenylsulfonyl)-1,2,3,4-tetrahydroquinolin-2-yl)methoxy)-1-(4-(1-methylpiperidin-4-yl)piperazin-1-yl)ethanone] | 104% | 99.8% | – | –
15 | CN1CCC(N2CCN(C(=O)COCC3CCc4ccccc4N3S(=O)(=O)c3ccc4ccccc4c3)CC2)CC1 (centres unmarked) [Example 203, 1-(4-(1-methylpiperidin-4-yl)piperazin-1-yl)-2-((1-(naphthalen-2-ylsulfonyl)-1,2,3,4-tetrahydroquinolin-2-yl)methoxy)ethanone] | 103% | 98.8% | – | –
16 | COc1ccc(S(=O)(=O)N2c3ccccc3CCC2COCC(=O)N2CCN(C3CCN(C)CC3)CC2)cc1 (centres unmarked) [Example 204, 2-((1-(4-methoxyphenylsulfonyl)-1,2,3,4-tetrahydroquinolin-2-yl)methoxy)-1-(4-(1-methylpiperidin-4-yl)piperazin-1-yl)ethanone] | 105% | 99% | – | –
17 | COc1cc(C)c(S(=O)(=O)N2CCCCC2COCC(=O)NCc2ccccc2Oc2cnccn2)c(C)c1 (centres unmarked) [Example 205, 2-((1-(4-methoxy-2,6-dimethylphenylsulfonyl)piperidin-2-yl)methoxy)-N-(2-(pyrazin-2-yloxy)benzyl)acetamide] | 50% | 99.7% | – | –
18 | COc1cc(C)c(S(=O)(=O)N2CCCCC2COCC(=O)N2Cc3ccncc3C2)c(C)c1 (centres unmarked) [Example 206, 2-((1-(4-methoxy-2,6-dimethylphenylsulfonyl)piperidin-2-yl)methoxy)-1-(1H-pyrrol[3,4-c]pyridin-2(3H)-yl)ethanone] | – | – | 53.94% | 99.49%
19 | COc1cc(C)c(S(=O)(=O)N2CCCCC2COCC(=O)N2CCOC(c3cccnc3)C2)c(C)c1 (centres unmarked) [Example 207, 2-((1-(4-methoxy-2,6-dimethylphenylsulfonyl)piperidin-2-yl)methoxy)-1-(2-(pyridin-3-yl)morpholin)ethanone] | – | – | 101.93% | 100.16%
20 | COc1cc(C)c(S(=O)(=O)N2CCCCC2COCC(=O)N2CCC(Cc3cccnc3)C2)c(C)c1 (centres unmarked) [Example 208, 2-((1-(4-methoxy-2,6-dimethylphenylsulfonyl)piperidin-2-yl)methoxy)-1-(3-(pyridin-3-ylmethyl)pyrrolidin-1-yl)ethanone] | 105% | 101% | – | –
21 | COc1cc(C)c(S(=O)(=O)N2CCCCC2COCC(=O)N(C)CCC2CCC(N(C)C)CC2)c(C)c1 (centres unmarked) [Example 209, N-(2-(4-(dimethylamino)cyclohexyl)ethyl)-2-((1-(4-methoxy-2,6-dimethylphenylsulfonyl)piperidin-2-yl)methoxy)-N-methylacetamide] | 104% | 99.9% | – | –
22 | COc1ccc2cc(S(=O)(=O)N3CCCCC3COCC(=O)N3CCN(C4CCN(C)CC4)CC3)ccc2c1 (centres unmarked) [Example 210, 2-((1-(6-methoxynaphthalen-2-ylsulfonyl)piperidin-2-yl)methoxy)-1-(4-(1-methylpiperidin-4-yl)piperazin-1-yl)ethanone] | 106% | 96% | – | –
